Experiments:
[1] = tested on: A549; experiment: Clonogenic assay; format: cell-based; settings: A549, adenocarcinoma
Description: (§1) Tested cells were seeded respectively in 6 well plates with 10^4 cells per well for 14 days. […] After the treatments, cells were washed with PBS, and the colonies were fixed with fix solution (methanol: acetic acid=3:1) and stained with 0.5% crystal violet in methanol. After removing the crystal violet carefully and rinse with tap water, the colonies were counted manually.

[2] = tested on: CL152; experiment: Clonogenic assay; format: cell-based; settings: CL152, squamous cell carcinoma
Description: as §1

[3] = tested on: CL97; experiment: Clonogenic assay; format: cell-based; settings: CL97, adenocarcinoma
Description: as §1

[4] = tested on: GBM8401; experiment: Clonogenic assay; format: cell-based; settings: GBM8401, brain cancer
Description: as §1

[5] = tested on: H1299; experiment: Clonogenic assay; format: cell-based; settings: H1299, large cell carcinoma
Description: as §1

[6] = tested on: CL97; experiment: Tumor spheroid (sphere formation) assay; format: cell-based
[7] = tested on: H441; experiment: Tumor spheroid (sphere formation) assay; format: cell-based, human; settings: H441, adenocarcinoma
[8] = tested on: HT29; experiment: Tumor spheroid (sphere formation) assay; format: cell-based; settings: HT29, colorectal adenocarcinoma
[9] = tested on: MDA-MB-231; experiment: Tumor spheroid (sphere formation) assay; format: cell-based; settings: MDA-MB-231, breast cancer
[10] = tested on: GBM8401; experiment: Side population analysis by flow cytometry (Hoechst 33342); format: cell-based; settings: GBM8401, brain cancer
Description: (§2) Single-cell suspensions of cells were detached from dishes with Trypsin-EDTA (Invitrogen) and suspended at 1×10^6 cells/mL in Hank's balanced salt solution ([…]) supplemented with 3% fetal calf serum and 10 mM Hepes. These cells were then incubated at 37° C. for 90 minutes with 20 μg/mL Hoechst 33342 (Sigma Chemical, St. Louis, Mo.). The ABC transporter inhibitor verapamil (Sigma) was added at a final concentration of 50 μM to confirm the gating area on flow cytometry. After 90 minutes incubation with indicated drugs, the cells were centrifuged immediately for 5 minutes at 300 g and 4° C. and resuspended in ice-cold HBSS, The cells were kept on ice to inhibit efflux of the Hoechst dye, and 1 μg/mL propidium iodide (PI, BD) were added to discriminate dead cells. Finally, these cells were filtered through a 40 μm cell strainer (BD) to obtain single-suspension cells. Cell dual-wavelength analysis and purification were performed on a dual-laser FACS Vantage SE (BD). Hoechst 33342 can be excited at 355 nm UV light and emitted blue fluorescence with a 450/20 band-pass (BP) filter and red fluorescence with a 675 nm edge filter long-pass (EFLP). A 610 nm dichroic mirror short-pass (DMSP) was used to separate the emission wavelengths. PI-positive (dead) cells were excluded from the analysis.

[11] = tested on: U87MG; experiment: as above; format: cell-based; settings: brain cancer
Description: as §2

[12] = tested on: CL152 spheres; experiment: Cytotoxicity at sphere cells, Trypan Blue Exclusion method; format: cell-based; settings: read-out: IC50 for prochlorperazine metabolites
[13] = tested on: CL152 spheres; experiment: Apoptosis by flow cytometry; format: cell-based; settings: 48 hours
[14] = tested on: A549 cells; experiment: Transwell migration assay; format: cell-based; settings: A549, 10 μM, 24 hours, vs DMSO controls
Excerpt: EMT also plays a critical role in the regulation of cancer sternness. EMT is characterized by enhanced cell migration and invasion.

[15] = tested on: NCI-H441 cells expressing firefly luciferase; experiment: NCI-H441 firefly luciferase tail vein tumor model, drug combination test; format: in vivo, mice; settings: prochlorperazine 1 mg/kg + pemetrexed 1 mg/kg; p<0.05
Description: In the first drug combination test, NCI-H441 cells expressing firefly luciferase (6×10^5 cells/injection) were injected into NOD/SCID mice (4-6 week of age) via the lateral tail vein for tumor establishment. […] Tumor burden from different groups were recorded by caliper. The change in tumor size was expressed as in fold change and plotted over time. Subsequently, we performed another set of drug combination test. […] For lung adenocarcinoma, the standard drug combination is pemetrexed and cisplatin whereas are used gemcitabine and cisplatin for lung squamous carcinoma. […] CL97 cancer cells (1.5×10^6 cells per injection) were injected subcutaneously into NOD/SCID mice to establish in viva tumor model.
In the drug combination test ([…]), NCI-H441 cells expressing firefly luciferase ([…] cells/injection) were injected into NOD/SCID mice (4-6 week of age) via the lateral tail vein for tumor establishment.

[16] = tested on: CL97; experiment: CL97 (adenocarcinoma) tumor-bearing NOD/SCID mice, standard regimen combination; format: in vivo
[17] = tested on: CL152; experiment: CL152 (squamous) tumor-bearing NOD/SCID mice, standard regimen combination; format: in vivo
[18] = tested on: lung squamous cell carcinoma; experiment: Case study, lung squamous cell carcinoma patient; format: in vivo, human; settings: person; prochlorperazine added to Tarceva (erlotinib); CT after 3 months
[19] = tested on: signet ring cell carcinoma; experiment: Case study, signet ring cell carcinoma patient; format: in vivo, human; settings: person; prochlorperazine with several kinds of chemotherapy; last followed-up CT
[20] = tested on: HCC827; experiment: Tumor spheroid (sphere formation) assay
Description: In brief, single cells were plated in 6-well ultralow attachment plates (Coming Inc.) at a density of 2,000 cells/mL in tumor spheroid culture medium, DMEM/F12 supplemented with 1% N2 Supplement (Invitrogen), 10 ng/mL basic fibroblast growth factor (Sigma-Aldrich), 10 ng/mL epidermal growth factor (Invitrogen) with 1% penicillin/streptomycin (Invitrogen) at 37° C. in a humidified atmosphere of 95% air and 5% CO2. Cells were cultured twice per week. When passaged, tumor spheres were harvested. Spheroids were dissociated with TrypLE™ (Invitrogen). Spheroids cell counting using the Trypan Blue Exclusion method.

## CN1CCN(CCCN2c3ccccc3Sc3ccc(Cl)cc32)CC1 [prochlorperazine]
[1]
  Clonogenic assay: 5 to 10 µM
[2]
  Clonogenic assay: 5 to 10 µM
[3]
  Clonogenic assay: 5 to 10 µM
[4]
  Clonogenic assay: 3.33 to 10 µM
[5]
  Clonogenic assay: 5 to 10 µM
[6]; CL97, adenocarcinoma
  Sphere formation: 0 to 2.5 µM
[6]; CL97 sphere cells, 1, 2.5, 5 and 10 μM, 48 hours, concentration-dependent
  number of spheres: reduced the number of spheres
[6]; CL97 spheres, co-treatment with gefitinib vs gefitinib alone, 48 hours
  number of sphere cells, co-treatment: significantly decreased the number of sphere cells
[7]
  Sphere formation: 0 to 2.5 µM
[8]
  Sphere formation: 0 to 2.5 µM
[9]
  Sphere formation: 5 to 10 µM
[10]
  Side population: >10 µM
[11]
  Side population: >10 µM
[12]
  IC50: < 5 µM
[13]
  apoptosis: dose-dependent increase in apoptosis
[14]
  cell migration: significantly inhibited cell migration
[15]
  tumor inhibitory effect, combination with pemetrexed: significantly better tumor inhibitory effect than any other groups
[16]; 5 mg/kg
  tumor growth, prochlorperazine alone: could inhibit tumor growth
[16]; 50 mg/kg pemetrexed + 3 mg/kg cisplatin + 5 mg/kg prochlorperazine
  tumor growth, standard treatment combined with prochlorperazine: more significantly inhibitory effect of tumor growth than other treatments
[17]; 5 mg/kg
  tumor growth, prochlorperazine alone: could inhibit tumor growth
[17]; 60 mg/kg gemcitabine + 3 mg/kg cisplatin + 5 mg/kg prochlorperazine
  tumor growth, standard treatment combined with prochlorperazine: more significantly inhibitory effect of tumor growth than other treatments
[18]
  CT follow-up of disease: stable disease
[19]
  tumor on CT: tumor was stable
[20]; HCC827
  sphere-forming ability: suppressed the sphere-forming ability
[20]; HCC827, adenocarcinoma
  Sphere formation: 5 to 10 µM
[20]; HCC827, combination with cisplatin vs prochlorperazine or cisplatin alone
  spheres number, combination with cisplatin: lower spheres number

From US20170105999A1, “METHOD FOR TREATING DRUG RESISTANT CANCER” (NATIONAL YANG MING UNIVERSITY, priority 2014, published 2017)
